Experiments:
[1] = target: T1, hNav1.7 (Homo sapiens (Human), UniProt Q15858); test: Electrophysiological assay (EP), voltage clamp on Syncropatch 384PE; type: cell-based; conditions: CHO cells expressing Nav1.7, holding potential −50 mV, 7.5 min compound incubation; read-out: EP_SP hNav1.7 EVO IC50
Excerpt: Example 39C. Electrophysiological Assay (EP) (In Vitro Assay)
Patch voltage clamp electrophysiology allows for the direct measurement and quantification of block of voltage-gated sodium channels (NaV's), and allows the determination of the time- and voltage-dependence of block which has been interpreted as differential binding to the resting, open, and inactivated states of the sodium channel (Hille, B., Journal of General Physiology (1977), 69: 497-515).
The following voltage clamp electrophysiology studies were performed on representative compounds using cells heterologously expressing Nav1.7 or Nav1.5 channels. cDNAs for Nav1.7 (NM_002977) and Nav1.5 (AC137587) were stably expressed in Chinese Hamstr Ovary (CHO) cells and CHL (Chinese Hamster Lung) cells respectively. Sodium currents were measured in the whole-cell configuration using Syncropatch 384PE (Nanlon Technologies, Germany). 1NPC®-384 chips with custom medium resistance and single hole mode are used. Internal solution consists of (in mM): 110 […], 10 CsCl, 20 EGTA, and 10 Hepes (pH adjusted to 7.2); and external solution contains (in mM): 60 NMDG, 80 NaCl, 4 KCl, 1 MgCl2, 2 CaCl2, 2 D-Glucose monohydrate, 10 Hepes (pH adjusted to 7.4 with NaOH).
After system flushing, testing compounds are dissolved in external solution containing 0.1% Pluronic F-127. The chip is moved into the measuring head and the instrument primes the chip with external and internal solutions. 10 l cells are added to the chip from a cell hotel, and a negative pressure of −50 mBar is applied to form a seal. Following treatment with seal enhancer solution and wash-off with external solution, negative pressure of −250 mbar is applied for 1 second to achieve the whole-cell configuration, followed by three washing steps in external solution. 20 µl of compounds is added to 40 µl in each well (1:3 dilution of compounds), and after mixing, 20 l is removed so the volume is retained at 40 ul. After approximately 13 minutes recordings, 20 µl/well of 2 uM TTX, or 333 uM Tetracaine (for Nav1.5) is added to achieve full block.
For voltage protocol, an holding potential of −50 mV is applied during the whole experiment. A depolarizing step is applied to −10 mV for 10 ms, followed by a hyperpolarization step to −150 mV for 20 ms to allow channel recovery from inactivation. A second depolarizing step is applied from −150 mV to −10 mV for 10 ms, where currents were measured to derive blocking effects of compounds. Inhibition is determined based on 7.5 min of compound incubation.

[2] = target: T1, hNav1.7; test: Tritiated compound binding to membranes from cells heterologously expressing hNav1.7 and the β1 subunit (LBA); conditions: competitive binding vs [3H]compound, membranes with hNav1.7 and β1 subunit; read-out: Nav1.7 LBA EVO IC50
Method: Example 39A. Tritiated Compound Binding to Membranes Isolated from Cells that Heterologously Express hNav1.7 and the β1 Subunit
Preparation of membranes containing recombinantly expressed sodium channels: Frozen recombinant cell pellets were thawed on ice and diluted to 4 times the cell pellet weight with ice cold 50 mM Tris HCl, pH 7.4 buffer. The cell suspensions were homogenized on ice using a motorized glass dounce homogeniser. Homogenates were further diluted 8.4 times with ice cold 50 mM Tris HCl, pH 7.4 buffer and then centrifuged at 200×g at 4° C. for 15 min. The supernatants were collected and centrifuged at 10000×g at 4° C. for 50 min. The pellets were then re-suspended in 100 mM NaCl, 20 mM Tris HCl, pH 7.4 buffer containing 1% v/v protease inhibitors (Calbiochem) and re-homogenized on ice. The homogenized membranes were then processed through a syringe equipped with a 26 gauge needle. Protein concentrations were determined by Bradford Assay and the membranes were stored at −80° C.
Saturation experiments. A competitive NaV1.7 inhibitor having a methyl group was tritiated. Three tritiums were incorporated in place of methyl hydrogens to generate [^3H]compound. Binding of this radioligand was performed in 5 mL borosilicate glass test tubes at room temperature. Binding was initiated by adding membranes to increasing concentrations of [^3H]compound in 100 mM NaCl, 20 mM Tris HCl, pH 7.4 buffer containing 0.01% w/v bovine serum albumin (BSA) for 18 h. Non-specific binding was determined in the presence of 1 μM unlabeled compound. After 18 h, the reactants were filtered through GF/C glass fiber filters presoaked in 0.5% w/v polyethylene imine. Filters were washed with 15 mL ice cold 100 mM NaCl, 20 mM Tris HCl, pH7.4 buffer containing 0.25% BSA to separate bound from free ligand. [^3H]compound bound to filters was quantified by liquid scintillation counting.
Binding reactions were performed in 96-well polypropylene plates at room temperature for 18 h. In 360 μL, membranes were incubated with 100 pM [^3H]compound and increasing concentrations of Test Compound. Non-specific binding was defined in the presence of 1 μM unlabeled compound. Reactions were transferred and filtered through 96-well glass fiber/C filter plates presoaked with 0.5% polyethylene imine. The filtered reactions were washed 5 times with 200 μL ice cold buffer containing 0.25% BSA. Bound radioactivity was determined by liquid scintillation counting.
For saturation experiments, non-specific binding was subtracted from total binding to provide specific binding and these values were recalculated in terms of pmol ligand bound per mg protein. Saturation curves were constructed and dissociation constants were calculated using the single site ligand binding model: Beq=(Bmax*X)/(X+Kd), where Beq is the amount of ligand bound at equilibrium, Bmax is the maximum receptor density, Kd is the dissociation constant for the ligand, and X is the free ligand concentration. For competition studies percent inhibition was determined and IC50 values were calculated using a 4 parameter logistic model (% inhibition=(A+((B−A)/(1+((x/C)^D)))) using XLfit, where A and B are the maximal and minimum inhibition respectively, C is the IC50 concentration and D is the (Hill) slope.
Example 39B. Tritiated Compound Binding to Membranes Isolated from Cells that Heterologous Express hNav1.7 and the β1 Subunit
Following the procedure described in Example 39A, and making modifications as required to: centrifuge supernatants at 100000×g instead of 10000×g; re-suspend pellets in a buffer containing 0.01% BSA in addition to 100 mM NaCl, 20 mM Tris HCl, pH 7.4 buffer, and 1% v/v […]; and storing membranes at −80° C. in single use aliquots instead of pooled.
Saturation experiments: Following the procedure described in Example 243A, and making modifications as required to incubate [3H]compound for 3 hours instead of 18 hours. […]

| Compound | IC50 [1] [nM] | IC50 [2] [nM] |
| --- | --- | --- |
| COc1cc(-c2cccc(C(F)F)c2)c(F)cc1N1C(=O)CO[C@@H]2CN(S(=O)(=O)Nc3ccon3)CC[C@H]21 [Example 15, (4aR,8aR)-1-(3′-(difluoromethyl)-2-fluoro-5-methoxy-[1,1′-biphenyl]-4-yl)-N-(isoxazol-3-yl)-2-oxohexahydro-1H-pyrido[3,4-b][1,4]oxazine-6(7H)-sulfonamide] | 46.7 | 2000 |
| COc1cc(-c2cccc(C(F)(F)F)c2F)c(F)cc1N1C(=O)CO[C@H]2CN(S(=O)(=O)Nc3ccon3)CC[C@@H]21 [Example 12, (4aS,8aS)-1-(2,2′-difluoro-5-methoxy-3′-(trifluoromethyl)-[1,1′-biphenyl]-4-yl)-N-(isoxazol-3-yl)-2-oxohexahydro-1H-pyrido[3,4-b][1,4]oxazine-6(7H)-sulfonamide] | 6.83 | 131 |
| COc1cc(-c2cccc(OC(F)(F)F)c2)c(F)cc1N1C(=O)CO[C@@H]2CN(S(=O)(=O)Nc3ccon3)CC[C@H]21 [Example 29, (4aR,8aR)-1-(2-fluoro-5-methoxy-3′-(trifluoromethoxy)-[1,1′-biphenyl]-4-yl)-N-(isoxazol-3-yl)-2-oxohexahydro-1H-pyrido[3,4-b][1,4]oxazine-6(7H)-sulfonamide] | 2.21 | 62.3 |
| COc1cc(-c2cccc(C(F)(F)F)c2)c(F)cc1N1C(=O)CO[C@@H]2CN(S(=O)(=O)Nc3ccon3)CC[C@H]21 [Example 3, (4aR,8aR)-1-(2-fluoro-5-methoxy-3′-(trifluoromethyl)-[1,1′-biphenyl]-4-yl)-N-(isoxazol-3-yl)-2-oxohexahydro-1H-pyrido[3,4-b][1,4]oxazine-6(7H)-sulfonamide] | 2.26 | 67 |
| COc1cc(-c2cccc(F)c2)c(F)cc1N1C(=O)CO[C@H]2CN(S(=O)(=O)Nc3ccon3)CC[C@@H]21 [Example 10, (4aS,8aS)-1-(2,3′-difluoro-5-methoxy-[1,1′-biphenyl]-4-yl)-N-(isoxazol-3-yl)-2-oxohexahydro-1H-pyrido[3,4-b][1,4]oxazine-6(7H)-sulfonamide] | 47.8 | 716 |
| COc1cc(-c2cc(F)cc(C(F)(F)F)c2)c(F)cc1N1C(=O)CO[C@H]2CN(S(=O)(=O)Nc3ccon3)CC[C@@H]21 [Example 6, (4aS,8aS)-1-(2,3′-difluoro-5-methoxy-5′-(trifluoromethyl)-[1,1′-biphenyl]-4-yl)-N-(isoxazol-3-yl)-2-oxohexahydro-1H-pyrido[3,4-b][1,4]oxazine-6(7H)-sulfonamide] | 1.84 | 52.9 |
| COc1cc(-c2cccc(C(F)(F)F)c2)c(F)cc1N1C(=O)OC[C@@H]2CN(S(=O)(=O)Nc3ccon3)CC[C@H]21 [Example 33, (4aR,8aR)-1-(2-fluoro-5-methoxy-3′-(trifluoromethyl)-[1,1′-biphenyl]-4-yl)-N-(isoxazol-3-yl)-2-oxohexahydro-2H-pyrido[4,3-d][1,3]oxazine-6(4H)-sulfonamide] | 10.4 | 112 |
| COc1cc(-c2cccc(C(F)(F)F)c2)c(F)cc1N1CCO[C@@H]2CN(S(=O)(=O)Nc3ccon3)CC[C@H]21 [Example 25, (4aR,8aR)-1-(2-fluoro-5-methoxy-3′-(trifluoromethyl)-[1,1′-biphenyl]-4-yl)-N-(isoxazol-3-yl)hexahydro-1H-pyrido[3,4-b][1,4]oxazine-6(7H)-sulfonamide] | 2.36 | 208 |
| COc1cc(-c2cccc(OC(F)(F)F)c2)c(F)cc1N1CCO[C@H]2CN(S(=O)(=O)Nc3ccon3)CC[C@@H]21 [Example 32, (4aS,8aS)-1-(2-fluoro-5-methoxy-3′-(trifluoromethoxy)-[1,1′-biphenyl]-4-yl)-N-(isoxazol-3-yl)hexahydro-1H-pyrido[3,4-b][1,4]oxazine-6(7H)-sulfonamide] | 10.9 | 148 |
| COc1cc(-c2cccc(C(F)(F)F)c2)c(F)cc1N1CCO[C@H]2CN(S(=O)(=O)Nc3ccon3)CC[C@@H]21 [Example 26, (4aS,8aS)-1-(2-fluoro-5-methoxy-3′-(trifluoromethyl)-[1,1′-biphenyl]-4-yl)-N-(isoxazol-3-yl)hexahydro-1H-pyrido[3,4-b][1,4]oxazine-6(7H)-sulfonamide] | 10.6 | 63.6 |
| N#Cc1cc(-c2cccc(C(F)(F)F)c2)c(F)cc1N1C(=O)CO[C@H]2CN(S(=O)(=O)Nc3ccon3)CC[C@@H]21 [Example 24, (4aS,8aS)-1-(5-cyano-2-fluoro-3′-(trifluoromethyl)-[1,1′-biphenyl]-4-yl)-N-(isoxazol-3-yl)-2-oxohexahydro-1H-pyrido[3,4-b][1,4]oxazine-6(7H)-sulfonamide] | 237 | 2000 |
| COc1nc(-c2cccc(C(F)(F)F)c2)c(F)cc1N1C(=O)CO[C@H]2CN(S(=O)(=O)Nc3ccon3)CC[C@@H]21 [Example 22, (4aS,8aS)-1-(5-fluoro-2-methoxy-6-(3-(trifluoromethyl)phenyl)pyridin-3-yl)-N-(isoxazol-3-yl)-2-oxohexahydro-1H-pyrido[3,4-b][1,4]oxazine-6(7H)-sulfonamide] | 66.8 | 907 |
| COc1cc(-c2cccc(F)c2)c(F)cc1N1C(=O)CO[C@@H]2CN(S(=O)(=O)Nc3ccon3)CC[C@H]21 [Example 9, (4aR,8aR)-1-(2,3′-difluoro-5-methoxy-[1,1′-biphenyl]-4-yl)-N-(isoxazol-3-yl)-2-oxohexahydro-1H-pyrido[3,4-b][1,4]oxazine-6(7H)-sulfonamide] | 19.4 | 2000 |

Source: patent US10947251B2, “Therapeutic compounds and methods of use thereof” (GENENTECH, INC., priority 2018, dated 2021)
